Data reported in patent US12552797B2, “Process for making (3-[cyclopropylethoxy(difluoro)methyl]-6-6[5-fluoro-6-(2,2,2-trifluoroethoxy-3-pyridyl]- [1,2,4]triazolo[4,3-a]pyrazine” (Praxis Precision Medicines, Inc., priority 2019, dated 2026).

What was measured:
[1] = XRPD, NMR and LC-MS of Compound 1 before and after jet milling; format: physicochemical
Description: X-ray powder diffraction (XRPD) data were collected using a Bruker D8 Advance powder diffractometer. The samples were irradiated with copper K-alpha X-rays (λ=1.54179 Å) with the generator operating at 40 kV/40 mA. The samples were scanned in continuous mode from 3° to 40° (2 θ) with a sample rotation speed of 15 rpm and a scanning rate of 10°/min.
Proton NMR (^1H-NMR), Florine NMR (^19F-NMR) and LC-MS analyses were also carried out on Compound 1 before jet milling and after jet milling.

[2] = Stability of suspension formulations in 0.5% MC 400 cP/0.2% Tween 80 (HPLC, PSD); format: physicochemical
Description: For stability and purity testing of Compound 1 a high-performance liquid chromatography (HPLC) method was developed. The HPLC method used for chemical stability and purity testing was as follows:
To prepare suspension formulations of Compound 1, about 0.5 mg, 5 mg and 10 mg of Compound 1 were weighted into separate vials and 1 mL 0.5% MC 400 cP/0.2% Tween 80 was added to each vial. The materials were mixed together by Vortex and stirred at room temperature overnight (24 hrs). The stability of the suspension formulations was measured by quantifying the purity of Compound 1 using high pressure liquid chromatography (HPLC). […]
To prepare a suspension formulation comprising jet-milled Compound 1, 15 mg of jet-milled Compound 1 was weighed into a glass vial and then 10 mL of vehicle (0.5% MC 400 cP/0.2% Tween 80) was added to disperse it to reach Compound 1 concentration of 1.5 mg/mL. The suspension was thoroughly dispersed by homogenization for ˜30 seconds. The stability of the suspension was evaluated by HPLC and particle size distribution (PSD), and the results are summarized in Table 7. Based on HPLC and PSD, the suspension formulation comprising jet-milled Compound 1 was stable at ambient condition for 28 days.

[3] = jet milled, 0.5% MC 400 cP/0.2% Tween 80, target 1.5 mg/mL, 1 day
[4] = jet milled, 0.5% MC 400 cP/0.2% Tween 80, target 1.5 mg/mL, 6 days
[5] = jet-milled, 0.5% MC 400 cP/0.2% Tween 80, target 1.5 mg/mL, RT, Initial
[6] = jet-milled, 0.5% MC 400 cP/0.2% Tween 80, target 1.5 mg/mL, RT, day 1
[7] = jet-milled, 0.5% MC 400 cP/0.2% Tween 80, target 1.5 mg/mL, RT, day 2
[8] = jet-milled, 0.5% MC 400 cP/0.2% Tween 80, target 1.5 mg/mL, RT, day 3
[9] = jet-milled, 0.5% MC 400 cP/0.2% Tween 80, target 1.5 mg/mL, RT, day 6
[10] = jet-milled, 0.5% MC 400 cP/0.2% Tween 80, target 1.5 mg/mL, RT, day 7
[11] = jet-milled, 0.5% MC 400 cP/0.2% Tween 80, target 1.5 mg/mL, RT, day 14
[12] = jet-milled, 0.5% MC 400 cP/0.2% Tween 80, target 1.5 mg/mL, RT, day 21
[13] = jet-milled, 0.5% MC 400 cP/0.2% Tween 80, target 1.5 mg/mL, RT, day 28
[14] = un-milled, 0.5% MC 400 cP/0.2% Tween 80, target 0.5 mg/mL, 1 hr
[15] = un-milled, 0.5% MC 400 cP/0.2% Tween 80, target 0.5 mg/mL, 4 hrs
[16] = un-milled, 0.5% MC 400 cP/0.2% Tween 80, target 0.5 mg/mL, 7 days
[17] = un-milled, 0.5% MC 400 cP/0.2% Tween 80, target 5 mg/mL, 4 hrs
[18] = un-milled, 0.5% MC 400 cP/0.2% Tween 80, target 5 mg/mL, 7 days
[19] = un-milled, 0.5% MC 400 cP/0.2% Tween 80, target 10 mg/mL, 1 hr
[20] = un-milled, 0.5% MC 400 cP/0.2% Tween 80, target 10 mg/mL, 4 hrs
[21] = un-milled, 0.5% MC 400 cP/0.2% Tween 80, target 10 mg/mL, 7 days

CCOC(F)(F)c1nnc2cnc(-c3cnc(OCC(F)(F)F)c(F)c3)cn12 [Compound 1, 3-(ethoxydifluoromethyl)-6-(5-fluoro-6-(2,2,2-trifluoroethoxy)pyridin-3-yl)-[1,2,4]triazolo[4,3-a]pyrazine]
physical form change (XRPD) ([1]; after jet-milling): no physical form change | chemical or structural change (NMR, LC-MS) ([1]; due to jet milling): no observed chemical or structural change | appearance of suspensions ([2]; 0.5, 5 and 10 mg/mL in 0.5% MC 400 cP/0.2% Tween 80, room temperature): homogenous suspensions | Concentration [2, 3]: 1440 µg/mL | Purity [2, 3]: 99.4% | Concentration [2, 4]: 1430 µg/mL | Purity [2, 4]: 99.5% | Appearance [2, 5]: Homogeneous | Conc. [2, 5]: 1610 µg/mL | Purity [2, 5]: 99.43% | Appearance [2, 6]: Homogeneous | Conc. [2, 6]: 1440 µg/mL | Purity [2, 6]: 99.44% | Appearance [2, 7]: Homogeneous | Conc. [2, 7]: 1380 µg/mL | Purity [2, 7]: 99.52% | Appearance [2, 8]: Homogeneous | Conc. [2, 8]: 1580 µg/mL | Purity [2, 8]: 99.49% | Appearance [2, 9]: Homogeneous | Conc. [2, 9]: 1430 µg/mL | Purity [2, 9]: 99.51% | Appearance [2, 10]: Homogeneous | Conc. [2, 10]: 1610 µg/mL | Purity [2, 10]: 99.55% | Appearance [2, 11]: Homogeneous | Conc. [2, 11]: 1610 µg/mL | Purity [2, 11]: 99.36% | Appearance [2, 12]: Homogeneous | Conc. [2, 12]: 1560 µg/mL | PSD (D90) [2, 12]: 6.97 um | Purity [2, 12]: 99.58% | Appearance [2, 13]: Homogeneous | Conc. [2, 13]: 1640 µg/mL | PSD (D90) [2, 13]: 6.80 um | Purity [2, 13]: 98.96% | stable at ambient condition (HPLC and PSD) ([2]; suspension of jet-milled Compound 1, 1.5 mg/mL, 0.5% MC 400 cP/0.2% Tween 80): 28 days | Concentration [2, 14]: 580 µg/mL | Purity [2, 14]: 97.46% | Concentration [2, 15]: 450 µg/mL | Purity [2, 15]: 96.65% | Concentration [2, 16]: 490 µg/mL | Purity [2, 16]: 97.85% | Purity ([2]; un-milled, 0.5% MC 400 cP/0.2% Tween 80, target 5 mg/mL, 1 hr): 97.60% | Concentration [2, 17]: 4720 µg/mL | Purity [2, 17]: 97.84% | Concentration [2, 18]: 5060 µg/mL | Purity [2, 18]: 96.95% | Concentration [2, 19]: 9690 µg/mL | Purity [2, 19]: 96.86% | Concentration [2, 20]: 9790 µg/mL | Purity [2, 20]: 97.12% | Concentration [2, 21]: 9720 µg/mL | Purity [2, 21]: 96.71%
